Measurements published in paper PMC5218480 (PLoS ONE, 2017).

System: MV-4-11 cells
Assay: Gene expression microarray analysis (Affymetrix PrimeView) and GSEA
Type: cell-based, human
Set-up: RFU PODN (11730768_x_at) / Fold change /veh PODN (11730768_x_at) / RFU LINC00158 (11744669_a_at) / Fold change /veh LINC00158 (11744669_a_at) / RFU DUSP10 (11751237_a_at) / Fold change /veh DUSP10 (11751237_a_at) / RFU ID3 (11757404_x_at) / Fold change /veh ID3 (11757404_x_at) / RFU PLEKHG5 (11737974_s_at) / Fold change /veh PLEKHG5 (11737974_s_at) / RFU LRRC4B (11730491_at) / Fold change /veh LRRC4B (11730491_at) / RFU GIMAP4 (11747438_a_at) / Fold change /veh GIMAP4 (11747438_a_at) / RFU KRT8 (11758183_x_at) / Fold change /veh KRT8 (11758183_x_at) / RFU CNN1 (11734310_a_at) / Fold change /veh CNN1 (11734310_a_at) / RFU VPS37D (11726825_at) / Fold change /veh VPS37D (11726825_at) / RFU C10orf10 (11716522_x_at) / Fold change /veh C10orf10 (11716522_x_at) / RFU KIR2DL2 /// KIR2DL4 /// KIR2DL5A /// KIR2DL5B /// KIR2DS1 /// KIR2DS2 /// KIR2DS3 /// KIR2DS4 /// KIR3DL3 /// KIR3DL3 /// KIR3DS1 (11738374_at) / Fold change /veh KIR2DL2 /// KIR2DL4 /// KIR2DL5A /// KIR2DL5B /// KIR2DS1 /// KIR2DS2 /// KIR2DS3 /// KIR2DS4 /// KIR3DL3 /// KIR3DL3 /// KIR3DS1 (11738374_at) / RFU C1QL1 (11718748_at) / Fold change /veh C1QL1 (11718748_at) / RFU TMPRSS4 (11747572_a_at) / Fold change /veh TMPRSS4 (11747572_a_at) / RFU HAMP (11756126_x_at) / Fold change /veh HAMP (11756126_x_at) / RFU RNFT2 (11725882_a_at) / Fold change /veh RNFT2 (11725882_a_at) / RFU NR4A2 (11747474_a_at) / Fold change /veh NR4A2 (11747474_a_at) / RFU ABCC12 (11746883_a_at) / Fold change /veh ABCC12 (11746883_a_at) / RFU TMEM136 (11760407_x_at) / Fold change /veh TMEM136 (11760407_x_at) / RFU CLDN22 /// WWC2 (11732394_at) / Fold change /veh CLDN22 /// WWC2 (11732394_at) / RFU HLA-DPB1 (11760878_x_at) / Fold change /veh HLA-DPB1 (11760878_x_at) / RFU SPINT1 (11716480_a_at) / Fold change /veh SPINT1 (11716480_a_at) / RFU GAP43 (11754022_s_at) / Fold change /veh GAP43 (11754022_s_at) / RFU A4GNT (11735810_at) / Fold change /veh A4GNT (11735810_at) / RFU PRB3 (11715151_x_at) / Fold change /veh PRB3 (11715151_x_at) / RFU TUBB4B (11761932_at) / Fold change /veh TUBB4B (11761932_at) / RFU CAPN14 (11732068_a_at) / Fold change /veh CAPN14 (11732068_a_at) / RFU TMCC2 (11721928_a_at) / Fold change /veh TMCC2 (11721928_a_at) / RFU IRGQ (11745062_a_at) / Fold change /veh IRGQ (11745062_a_at) / RFU FAM174B (11720279_a_at) / Fold change /veh FAM174B (11720279_a_at) / RFU TMPRSS4 (11748680_a_at) / Fold change /veh TMPRSS4 (11748680_a_at) / RFU FAM212B (11763350_a_at) / Fold change /veh FAM212B (11763350_a_at) / RFU PLEKHG5 (11743358_a_at) / Fold change /veh PLEKHG5 (11743358_a_at) / RFU ZSCAN30 (11745921_a_at) / Fold change /veh ZSCAN30 (11745921_a_at) / RFU CMKLR1 (11741424_a_at) / Fold change /veh CMKLR1 (11741424_a_at) / RFU LOC101060620 /// MAPK8IP1 (11723275_at) / Fold change /veh LOC101060620 /// MAPK8IP1 (11723275_at) / RFU SPTSSB (11747773_x_at) / Fold change /veh SPTSSB (11747773_x_at) / RFU PRSS12 (11739890_at) / Fold change /veh PRSS12 (11739890_at) / RFU BIN1 (11741810_x_at) / Fold change /veh BIN1 (11741810_x_at) / RFU WNT11 (11732464_a_at) / Fold change /veh WNT11 (11732464_a_at) / RFU C10orf10 (11716521_a_at) / Fold change /veh C10orf10 (11716521_a_at) / RFU C5orf56 (11738089_at) / Fold change /veh C5orf56 (11738089_at) / RFU CYB561 (11721691_x_at) / Fold change /veh CYB561 (11721691_x_at) / RFU ANKRD19P (11752326_a_at) / Fold change /veh ANKRD19P (11752326_a_at) / RFU OR2T12 /// OR2T33 /// OR2T8 (11738714_s_at) / Fold change /veh OR2T12 /// OR2T33 /// OR2T8 (11738714_s_at) / RFU VCAN (11748164_a_at) / Fold change /veh VCAN (11748164_a_at) / RFU JSRP1 (11732532_at) / Fold change /veh JSRP1 (11732532_at) / RFU KRTAP10-11 (11738290_x_at) / Fold change /veh KRTAP10-11 (11738290_x_at) / RFU MYO3A (11730013_a_at) / Fold change /veh MYO3A (11730013_a_at) / RFU EBF3 (11725865_a_at) / Fold change /veh EBF3 (11725865_a_at) / RFU CAMK2N1 (11719241_x_at) / Fold change /veh CAMK2N1 (11719241_x_at) / RFU C5orf56 (11738088_a_at) / Fold change /veh C5orf56 (11738088_a_at) / RFU OLFML3 (11715873_a_at) / Fold change /veh OLFML3 (11715873_a_at) / RFU LOC100653217 /// NTM (11731650_a_at) / Fold change /veh LOC100653217 /// NTM (11731650_a_at) / RFU MAPK11 (11762145_a_at) / Fold change /veh MAPK11 (11762145_a_at) / RFU FIZ1 (11724087_x_at) / Fold change /veh FIZ1 (11724087_x_at) / RFU OASL (11726364_x_at) / Fold change /veh OASL (11726364_x_at) / RFU SOX15 (11748057_x_at) / Fold change /veh SOX15 (11748057_x_at) / RFU CD79A (11719716_a_at) / Fold change /veh CD79A (11719716_a_at) / RFU HIST1H1D (11736915_at) / Fold change /veh HIST1H1D (11736915_at) / RFU CASKIN2 (11723855_a_at) / Fold change /veh CASKIN2 (11723855_a_at) / RFU LOC730098 (11760151_x_at) / Fold change /veh LOC730098 (11760151_x_at) / RFU OR4N2 (11742367_at) / Fold change /veh OR4N2 (11742367_at) / RFU PRRT2 (11749266_a_at) / Fold change /veh PRRT2 (11749266_a_at) / RFU SNX32 (11753110_a_at) / Fold change /veh SNX32 (11753110_a_at) / RFU CDHR5 (11726645_a_at) / Fold change /veh CDHR5 (11726645_a_at) / RFU RCAN1 (11760418_a_at) / Fold change /veh RCAN1 (11760418_a_at) / RFU FAM167A (11723789_a_at) / Fold change /veh FAM167A (11723789_a_at) / RFU FAM26E (11764081_at) / Fold change /veh FAM26E (11764081_at) / RFU ISYNA1 (11749810_s_at) / Fold change /veh ISYNA1 (11749810_s_at) / RFU ACY1 (11761880_at) / Fold change /veh ACY1 (11761880_at) / RFU 11764098_at / Fold change /veh 11764098_at / RFU SAMD14 (11745864_x_at) / Fold change /veh SAMD14 (11745864_x_at) / RFU NPB (11741838_a_at) / Fold change /veh NPB (11741838_a_at) / RFU TMPRSS6 (11731388_a_at) / Fold change /veh TMPRSS6 (11731388_a_at) / RFU KRTAP10-2 (11738614_at) / Fold change /veh KRTAP10-2 (11738614_at) / RFU ARHGAP8 /// PRR5-ARHGAP8 (11727945_x_at) / Fold change /veh ARHGAP8 /// PRR5-ARHGAP8 (11727945_x_at) / RFU KRTAP5-7 /// NADSYN1 (11734609_at) / Fold change /veh KRTAP5-7 /// NADSYN1 (11734609_at) / RFU RASL12 (11751679_a_at) / Fold change /veh RASL12 (11751679_a_at) / RFU CDKN2B (11736163_a_at) / Fold change /veh CDKN2B (11736163_a_at) / RFU PRF1 (11729649_at) / Fold change /veh PRF1 (11729649_at) / RFU, ZNF638 /// ZNF638-IT1 / Fold change vs veh, ZNF638 /// ZNF638-IT1 / RFU, PANK3 / Fold change vs veh, PANK3 / RFU, SH3YL1 / Fold change vs veh, SH3YL1 / RFU, ZEB2 / Fold change vs veh, ZEB2 / RFU, NRIP1 / Fold change vs veh, NRIP1 / RFU, PTTG1IP / Fold change vs veh, PTTG1IP / RFU, CAPN2 / Fold change vs veh, CAPN2 / RFU, MED14 / Fold change vs veh, MED14 / RFU, SNORA58 / Fold change vs veh, SNORA58 / RFU, C1orf63 / Fold change vs veh, C1orf63 / RFU, LRRFIP1 / Fold change vs veh, LRRFIP1 / RFU, NDUFAF7 / Fold change vs veh, NDUFAF7 / RFU, SLC12A2 / Fold change vs veh, SLC12A2 / RFU, IBTK / Fold change vs veh, IBTK / RFU, ESF1 / Fold change vs veh, ESF1 / Fold change vs veh, TMEM50B / RFU, TAOK1 / Fold change vs veh, TAOK1 / RFU, ACBD3 / Fold change vs veh, ACBD3 / RFU, TMA16 / Fold change vs veh, TMA16 / RFU, RWDD3 / Fold change vs veh, RWDD3 / RFU, BCAT1 / Fold change vs veh, BCAT1 / RFU, EDEM3 / Fold change vs veh, EDEM3 / RFU, TMEM33 / Fold change vs veh, TMEM33 / RFU, WDR75 / Fold change vs veh, WDR75 / RFU, AHCTF1 / Fold change vs veh, AHCTF1 / RFU, TFRC / Fold change vs veh, TFRC / RFU, ZDHHC17 / Fold change vs veh, ZDHHC17 / RFU, NOM1 / Fold change vs veh, NOM1 / RFU, ARL8B / Fold change vs veh, ARL8B / RFU, ZBTB11 / Fold change vs veh, ZBTB11 / RFU, TAMM41 / Fold change vs veh, TAMM41 / RFU, KIAA1704 /// LOC100996395 / Fold change vs veh, KIAA1704 /// LOC100996395 / RFU, ING1 / Fold change vs veh, ING1 / RFU, TRMT61B / Fold change vs veh, TRMT61B / RFU, FUBP3 / Fold change vs veh, FUBP3 / RFU, TP53 / Fold change vs veh, TP53 / RFU, TNKS2 / Fold change vs veh, TNKS2 / RFU, ZFP14 / Fold change vs veh, ZFP14 / RFU, ACTR2 / Fold change vs veh, ACTR2 / RFU, PPP3R1 / Fold change vs veh, PPP3R1 / RFU, PIK3R1 / Fold change vs veh, PIK3R1 / RFU, HNRNPA1 / Fold change vs veh, HNRNPA1 / RFU, RNF170 / Fold change vs veh, RNF170 / RFU, ZNF28 / Fold change vs veh, ZNF28 / RFU, RNGTT / Fold change vs veh, RNGTT / RFU, OGT / Fold change vs veh, OGT / RFU, BRD1 / Fold change vs veh, BRD1 / RFU, MARS / Fold change vs veh, MARS / RFU, ZNF655 / Fold change vs veh, ZNF655 / RFU, FAHD1 / Fold change vs veh, FAHD1 / RFU, BDP1 / Fold change vs veh, BDP1 / RFU, LRRCC1 / Fold change vs veh, LRRCC1 / RFU, ARID1A / Fold change vs veh, ARID1A / RFU, ZNF146 / Fold change vs veh, ZNF146 / RFU, ZNF330 / Fold change vs veh, ZNF330 / RFU, GPN3 / Fold change vs veh, GPN3 / RFU, C9orf123 / Fold change vs veh, C9orf123 / RFU, N4BP2L2 / Fold change vs veh, N4BP2L2 / RFU, ARFIP1 / Fold change vs veh, ARFIP1 / RFU, FAM179B / Fold change vs veh, FAM179B / RFU, BCL10 / Fold change vs veh, BCL10 / RFU, UHRF1BP1L / Fold change vs veh, UHRF1BP1L / RFU, BET1 / Fold change vs veh, BET1 / RFU, CNOT2 / Fold change vs veh, CNOT2 / RFU, ZNF268 / Fold change vs veh, ZNF268 / Fold change vs veh, ZNF507 / RFU, DGCR2 / Fold change vs veh, DGCR2 / RFU, WDSUB1 / Fold change vs veh, WDSUB1 / Fold change vs veh, HSP90B1 /// MIR3652 / RFU, ADSS / Fold change vs veh, ADSS / RFU, GK / Fold change vs veh, GK / RFU, ZNF148 / Fold change vs veh, ZNF148 / RFU, TAF9 / Fold change vs veh, TAF9 / RFU, SLC1A5 / Fold change vs veh, SLC1A5 / RFU, SLMO2 / Fold change vs veh, SLMO2 / RFU, ABCC4 / Fold change vs veh, ABCC4 / RFU, LOC101060439 /// RAP1B / Fold change vs veh, LOC101060439 /// RAP1B / RFU, RFX7 / Fold change vs veh, RFX7 / RFU, GTPBP10 / Fold change vs veh, GTPBP10 / RFU, CNEP1R1 / Fold change vs veh, CNEP1R1 / RFU, BIVM-ERCC5 /// ERCC5 / Fold change vs veh, BIVM-ERCC5 /// ERCC5 / RFU, ILF3 / Fold change vs veh, ILF3 / RFU 11762660_at / Fold change /veh 11762660_at / RFU VCAN (11757783_s_at) / Fold change /veh VCAN (11757783_s_at) / RFU DDX43 (11728927_at) / Fold change /veh DDX43 (11728927_at) / RFU KRT8 (11758188_x_at) / Fold change /veh KRT8 (11758188_x_at) / RFU NKD1 (11759106_at) / Fold change /veh NKD1 (11759106_at) / RFU SRD5A1 (11742802_a_at) / Fold change /veh SRD5A1 (11742802_a_at) / RFU TPSAB1 /// TPSB2 (11721975_s_at) / Fold change /veh TPSAB1 /// TPSB2 (11721975_s_at) / RFU GSTM3 (11746129_a_at) / Fold change /veh GSTM3 (11746129_a_at) / RFU IL23R (11737362_x_at) / Fold change /veh IL23R (11737362_x_at) / RFU TMEM51 (11727254_a_at) / Fold change /veh TMEM51 (11727254_a_at) / RFU PIWIL2 (11732686_x_at) / Fold change /veh PIWIL2 (11732686_x_at) / RFU ORM1 (11744905_x_at) / Fold change /veh ORM1 (11744905_x_at) / RFU CCDC152 (11743942_at) / Fold change /veh CCDC152 (11743942_at) / RFU ECM1 (11717891_a_at) / Fold change /veh ECM1 (11717891_a_at) / RFU IL23R (11748794_a_at) / Fold change /veh IL23R (11748794_a_at) / RFU TNFAIP8L3 (11732012_x_at) / Fold change /veh TNFAIP8L3 (11732012_x_at) / RFU MBOAT4 (11741988_at) / Fold change /veh MBOAT4 (11741988_at) / RFU 11764193_at / Fold change /veh 11764193_at / RFU TMEM53 (11763286_at) / Fold change /veh TMEM53 (11763286_at) / RFU MAGEB2 (11727129_at) / Fold change /veh MAGEB2 (11727129_at) / RFU TMEM200A (11744735_a_at) / Fold change /veh TMEM200A (11744735_a_at) / RFU CCDC152 (11751479_a_at) / Fold change /veh CCDC152 (11751479_a_at) / RFU FAM211A (11726209_a_at) / Fold change /veh FAM211A (11726209_a_at) / RFU RGS16 (11746705_a_at) / Fold change /veh RGS16 (11746705_a_at) / RFU VCAN (11755009_s_at) / Fold change /veh VCAN (11755009_s_at) / RFU RHOB (11743442_s_at) / Fold change /veh RHOB (11743442_s_at) / RFU RGS16 (11720943_a_at) / Fold change /veh RGS16 (11720943_a_at) / RFU RGS16 (11720944_at) / Fold change /veh RGS16 (11720944_at) / RFU, VPS4B / Fold change vs veh, VPS4B / RFU, CREB1 / Fold change vs veh, CREB1 / RFU, DNAJC13 / Fold change vs veh, DNAJC13 / RFU, GNAQ / Fold change vs veh, GNAQ / RFU, CDK5R1 / Fold change vs veh, CDK5R1 / RFU, ZRANB3 / Fold change vs veh, ZRANB3 / RFU, CUL4A / Fold change vs veh, CUL4A / RFU, CCNY / Fold change vs veh, CCNY / RFU, UFL1 / Fold change vs veh, UFL1 / RFU, COG3 / Fold change vs veh, COG3 / RFU, DIAPH2 / Fold change vs veh, DIAPH2 / RFU, SKA2 / Fold change vs veh, SKA2 / RFU, AFF3 / Fold change vs veh, AFF3 / RFU, LMF1 / Fold change vs veh, LMF1 / RFU, IPO11 / Fold change vs veh, IPO11 / RFU, DFFB / Fold change vs veh, DFFB / RFU, FOXP1 / Fold change vs veh, FOXP1 / RFU, CARD8 / Fold change vs veh, CARD8 / RFU, STRN3 / Fold change vs veh, STRN3 / RFU, ADK / Fold change vs veh, ADK / RFU, RASSF2 / Fold change vs veh, RASSF2 / RFU, WIPF1 / Fold change vs veh, WIPF1 / RFU, LARP1B / Fold change vs veh, LARP1B / RFU, RASA1 / Fold change vs veh, RASA1 / RFU, RB1 / Fold change vs veh, RB1 / RFU, PPFIA1 / Fold change vs veh, PPFIA1 / RFU, MAT2A / Fold change vs veh, MAT2A / RFU, CCT5 / Fold change vs veh, CCT5 / RFU, WDR92 / Fold change vs veh, WDR92 / RFU, CUX1 / Fold change vs veh, CUX1 / RFU, TTC7A / Fold change vs veh, TTC7A / RFU, TMEM135 / Fold change vs veh, TMEM135 / RFU, DEPTOR / Fold change vs veh, DEPTOR / RFU, CPM / Fold change vs veh, CPM / RFU, DNAJB6 / Fold change vs veh, DNAJB6 / RFU, CACNA2D3 / Fold change vs veh, CACNA2D3 / RFU, DTX4 / Fold change vs veh, DTX4 / RFU, TFCP2 / Fold change vs veh, TFCP2 / RFU, GMCL1 /// GMCL1P1 / Fold change vs veh, GMCL1 /// GMCL1P1 / RFU, AEBP2 / Fold change vs veh, AEBP2 / RFU, SNHG1 /// SNORD22 /// SNORD25 /// SNORD26 /// SNORD27 /// SNORD28 /// SNORD29 /// SNORD31 / Fold change vs veh, SNHG1 /// SNORD22 /// SNORD25 /// SNORD26 /// SNORD27 /// SNORD28 /// SNORD29 /// SNORD31 / Fold change (Aza/veh), C12orf56 (ProbeSet 11735607_a_at) / Fold change (ACY-1035/veh), C12orf56 (ProbeSet 11735607_a_at) / Fold change (Aza/veh), FGFR1OP (ProbeSet 11751329_s_at) / Fold change (ACY-1035/veh), FGFR1OP (ProbeSet 11751329_s_at) / Fold change (Aza/veh), VPS36 (ProbeSet 11739960_a_at) / Fold change (ACY-1035/veh), VPS36 (ProbeSet 11739960_a_at) / RFU SYPL1 (11715823_x_at) / Fold change /veh SYPL1 (11715823_x_at) / RFU IGFBP7 (11715501_s_at) / Fold change /veh IGFBP7 (11715501_s_at) / RFU REEP3 (11722064_at) / Fold change /veh REEP3 (11722064_at) / RFU IGLL1 (11728026_x_at) / Fold change /veh IGLL1 (11728026_x_at): dose or concentration left out as unconfirmed
Details: ProbeSet 11740011_at; LIST B

Nc1ncn([C@@H]2O[C@H](CO)[C@@H](O)[C@H]2O)c(=O)n1 [azacitidine]
RFU, ZFP14: 67.74 RFU
